Entries after “also recorded” stand apart in the source; their conditions may differ. Where two headings read alike, the source gives them in different places.
Legend:
[1] = system: STAM model of non-alcoholic steatohepatitis; assay: STAM model of NASH: F4/80 immunostaining; format: in vivo, mice; conditions: for F4/80-positive area (mean ± SD): n = 8
Description: (§1) NASH was induced in 48 male mice by a single subcutaneous injection of 200 μg streptozotocin (STZ, Sigma-Aldrich, USA) solution 2 days after birth and feeding with high fat diet (HFD, 57 kcal % fat, Cat #HFD32, CLEA Japan, Inc., Japan) after 4 weeks of age.
(§2) Compound A was administered at 3 dose levels of 10, 20 and 40 mg/kg once daily from 6 to 9 weeks of age. Compound B was administered at a dose of 40 mg/kg once daily from 6 to 9 weeks of age. Telmisartan was administered at a dose of 10 mg/kg once daily from 6 to 9 weeks of age.

[2] = system: STAM model of non-alcoholic steatohepatitis; format: in vivo; conditions: for Liver weight (mean ± SD) / Liver-to-body weight ratio (mean ± SD): n = 8
From the text: To prepare dosing solution, Compound A and B were weighed and suspended in Vehicle which was composed of 20% of Vehicle-A1 and 80% of Vehicle-A2. Vehicle-A1 was composed of 0.5% (w/v) Carboxymethyl cellulose (CMC) 400-800 centipoises in water for injection+2.5% (w/v) Tween 80. Vehicle-A2 was composed of 0.5% (w/v) Carboxymethyl cellulose (CMC) 400-800 centipoises in water for injection. Telmisartan (Micardis®) was purchased from Boehringer Ingelheim GmbH (Germany) and dissolved in pure water.
as §1
Compound A and B, and Telmisartan were administered orally in a volume of 10 mL/kg.
as §2
C57BL/6 mice (14-day-pregnant female) were obtained from Japan SLC, Inc. (Japan). All animals used in the study were housed and cared for in accordance with the Japanese Pharmacological Society Guidelines for Animal Use.
Group 1: Vehicle Eight NASH mice were orally administered vehicle [20% of Vehicle-A1 and 80% of Vehicle-A2] in a volume of 10 mL/kg once daily from 6 to 9 weeks of age.
Eight NASH mice were orally administered vehicle supplemented with Compound A at a dose of 10 mg/kg once daily from 6 to 9 weeks of age.
Eight NASH mice were orally administered vehicle supplemented with Compound A at a dose of 20 mg/kg once daily from 6 to 9 weeks of age.
Eight NASH mice were orally administered vehicle supplemented with Compound A at a dose of 40 mg/kg once daily from 6 to 9 weeks of age.
Eight NASH mice were orally administered vehicle supplemented with Compound B at a dose of 40 mg/kg once daily from 6 to 9 weeks of age.
Eight NASH mice were orally administered pure water supplemented with Telmisartan at a dose of 10 mg/kg once daily from 6 to 9 weeks of age.
The viability, clinical signs and behavior were monitored daily. Body weight was recorded before the treatment. […] The animals were sacrificed at 9 weeks of age by exsanguination through direct cardiac puncture under isoflurane anesthesia (Pfizer Inc.).

[3] = system: STAM model of non-alcoholic steatohepatitis; assay: STAM model of NASH: plasma ALT; format: in vivo, mice; conditions: for Plasma ALT (mean ± SD): n = 8
Description: NASH was induced in 48 male mice by a single subcutaneous injection of 200 μg streptozotocin (STZ, Sigma-Aldrich, USA) solution 2 days after birth and feeding with high fat diet (HFD, 57 kcal % fat, Cat #HFD32, CLEA Japan, Inc., Japan) after 4 weeks of age. Compound A was administered at 3 dose levels of 10, 20 and 40 mg/kg once daily from 6 to 9 weeks of age. Compound B was administered at a dose of 40 mg/kg once daily from 6 to 9 weeks of age. Telmisartan was administered at a dose of 10 mg/kg once daily from 6 to 9 weeks of age. For plasma biochemistry, non-fasting blood was collected in polypropylene tubes with anticoagulant (Novo-Heparin, Mochida Pharmaceutical Co. Ltd., Japan) and centrifuged at 1,000×g for 15 minutes at 4° C. The supernatant was collected and stored at −80° C. until use. Plasma ALT was measured by FUJI DRI-CHEM 7000 (Fujifilm, Japan).

[4] = system: STAM model of non-alcoholic steatohepatitis; assay: STAM model of NASH: liver triglyceride content; format: in vivo, mice; conditions: n = 8
Description: as §1, §2
Liver total lipid-extracts were obtained by Folch's method (Folch J. et al., J. Biol. Chem. 1957; 226: 497). Liver samples were homogenized in chloroform-methanol (2:1, v/v) and incubated overnight at room temperature. After washing with chloroform-methanol-water (8:4:3, v/v/v), the extracts were evaporated to dryness, and dissolved in isopropanol. Liver triglyceride content was measured by Triglyceride E-test (FUJIFILM Wako Pure Chemical Corporation, Japan).

[5] = system: STAM model of non-alcoholic steatohepatitis; assay: STAM model of NASH: Sirius red staining, fibrosis area; format: in vivo, mice; conditions: for Sirius red-positive area (fibrosis area, mean ± SD): n = 8
Description: NASH was induced in 48 male mice by a single subcutaneous injection of 200 μg streptozotocin (STZ, Sigma-Aldrich, USA) solution 2 days after birth and feeding with high fat diet (HFD, 57 kcal % fat, Cat #HFD32, CLEA Japan, Inc., Japan) after 4 weeks of age. Compound A was administered at 3 dose levels of 10, 20 and 40 mg/kg once daily from 6 to 9 weeks of age. Compound B was administered at a dose of 40 mg/kg once daily from 6 to 9 weeks of age. Telmisartan was administered at a dose of 10 mg/kg once daily from 6 to 9 weeks of age. For HE staining, sections were cut from paraffin blocks of liver tissue prefixed in Bouin's solution and stained with Lillie-Mayer's Hematoxylin (Muto Pure Chemicals Co., Ltd., Japan) and eosin solution (FUJIFILM Wako Pure Chemical Corporation). NAFLD Activity score (NAS) was calculated according to the criteria of Kleiner (Kleiner D E. et al., Hepatology, 2005; 41:1313). To visualize collagen deposition, Bouin's fixed liver sections were stained using picro-Sirius red solution (Waldeck, Germany). For quantitative analysis of fibrosis area, bright field images of Sirius red-stained sections were captured around the central vein using a digital camera (DFC295; Leica, Germany) at 200-fold magnification, and the positive areas in 5 fields/section were measured using ImageJ software (National Institute of Health, USA).

[6] = summary statement, dose not stated
[7] = 10 mg/kg PO QD (Compound A low, Telmisartan groups)
[8] = 10 mg/kg PO QD, 6-9 wks of age (Compound A low, Telmisartan groups)
[9] = 20 mg/kg PO QD (Compound A middle group)
[10] = 20 mg/kg PO QD, 6-9 wks of age (Compound A middle group)
[11] = 40 mg/kg PO QD (Compound A high, Compound B groups)
[12] = 40 mg/kg PO QD, 6-9 wks of age (Compound A high, Compound B groups)

FC(F)(F)Oc1ccc(Nc2ccc3cccc(Cl)c3n2)cc1 [8-Chloro-N-(4-(trifluoromethoxy)phenyl)quinolin-2-amine]
F4/80-positive area in the liver [1, 6]: decreased

FC(F)(F)Oc1ccc(Nc2ccc3cccc(Cl)c3n2)cc1 [Compound A, 8-Chloro-N-(4-(trifluoromethoxy)phenyl)quinolin-2-amine]
Mean liver weight compared with the Vehicle group [2, 7]: significant increase | Mean liver-to-body weight ratio compared with the Vehicle group [2, 7]: tended to increase | Liver weight (mean ± SD) [2, 8]: 1662 ± 254 mg | Liver-to-body weight ratio (mean ± SD) [2, 8]: 8.4 ± 1.8% | Mean liver weight compared with the Vehicle group [2, 9]: no significant difference | Mean liver-to-body weight ratio compared with the Vehicle group [2, 9]: tended to increase | Liver weight (mean ± SD) [2, 10]: 1500 ± 77 mg | Liver-to-body weight ratio (mean ± SD) [2, 10]: 7.6 ± 0.4% | Mean liver weight compared with the Vehicle group [2, 11]: tended to increase | Mean liver-to-body weight ratio compared with the Vehicle group [2, 11]: tended to increase | Liver weight (mean ± SD) [2, 12]: 1654 ± 145 mg | Liver-to-body weight ratio (mean ± SD) [2, 12]: 8.5 ± 1.1% | Plasma ALT level compared with the Vehicle group [3, 7]: tended to increase; also recorded: increasing trend | Plasma ALT (mean ± SD) [3, 8]: 75 ± 31 U/L | Plasma ALT level compared with the Vehicle group [3, 9]: tended to increase; also recorded: increasing trend | Plasma ALT (mean ± SD) [3, 10]: 91 ± 15 U/L | Plasma ALT level compared with the Vehicle group [3, 11]: significant increase | Plasma ALT (mean ± SD) [3, 12]: 133 ± 100 U/L | Liver triglyceride (mean ± SD) [4, 8]: 64.9 ± 27.6 mg/g liver | Liver triglyceride (mean ± SD) [4, 10]: 63.1 ± 21.2 mg/g liver | Liver triglyceride (mean ± SD) [4, 12]: 66.6 ± 25.6 mg/g liver | Sirius red-positive area (fibrosis area, mean ± SD) [5, 8]: 0.70 ± 0.11% | Fibrosis area (Sirius red-positive area) compared with the Vehicle group [5, 9]: tended to decrease; also recorded: decreasing trends | Sirius red-positive area (fibrosis area, mean ± SD) [5, 10]: 0.65 ± 0.13% | Sirius red-positive area (fibrosis area, mean ± SD) [5, 12]: 0.68 ± 0.14% | Pathological deposition of collagen in the liver (Sirius red staining) [5, 6]: decreasing trend | F4/80-positive area (mean ± SD) [1, 8]: 2.22 ± 0.46% | F4/80-positive area compared with the Vehicle group [1, 9]: tended to decrease | F4/80-positive area (mean ± SD) [1, 10]: 1.88 ± 0.62% | F4/80-positive area compared with the Vehicle group [1, 11]: significant decrease | F4/80-positive area (mean ± SD) [1, 12]: 1.53 ± 0.77%
